Experimental data from ChEMBL document CHEMBL1144406 (J Med Chem, 2005).

How the values were obtained:
[1] = molecular target: T1, Prostaglandin D2 receptor (Homo sapiens, UniProt Q13258); assay: Inhibition of [3H]-PGD-2 binding to human Prostaglandin D2 receptor
T1 sequence (Q13258 whole entry): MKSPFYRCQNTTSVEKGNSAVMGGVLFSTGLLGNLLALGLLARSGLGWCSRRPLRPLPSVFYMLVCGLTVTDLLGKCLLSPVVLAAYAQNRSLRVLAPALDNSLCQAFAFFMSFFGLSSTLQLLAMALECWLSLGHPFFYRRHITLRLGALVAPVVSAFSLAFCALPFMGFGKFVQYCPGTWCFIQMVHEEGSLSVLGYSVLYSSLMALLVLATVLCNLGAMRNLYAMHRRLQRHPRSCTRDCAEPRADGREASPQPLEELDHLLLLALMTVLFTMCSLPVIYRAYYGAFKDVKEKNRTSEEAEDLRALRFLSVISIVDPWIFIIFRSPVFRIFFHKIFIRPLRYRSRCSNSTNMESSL

[2] = molecular target: T2, Thromboxane A2 receptor (Homo sapiens, UniProt P21731); assay: Inhibition of [3H]SQ-29,548 binding to human Thromboxane A2 receptor
T2 sequence (P21731 whole entry): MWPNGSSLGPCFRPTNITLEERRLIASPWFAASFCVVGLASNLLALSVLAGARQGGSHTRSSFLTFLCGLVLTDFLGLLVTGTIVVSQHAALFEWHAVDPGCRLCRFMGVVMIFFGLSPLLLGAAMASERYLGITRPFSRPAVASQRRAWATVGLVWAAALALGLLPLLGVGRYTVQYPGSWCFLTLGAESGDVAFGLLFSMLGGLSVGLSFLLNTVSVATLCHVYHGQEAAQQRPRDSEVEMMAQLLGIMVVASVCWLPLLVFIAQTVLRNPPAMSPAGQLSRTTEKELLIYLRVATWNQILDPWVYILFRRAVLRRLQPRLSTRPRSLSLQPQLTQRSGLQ

[3] = molecular target: T3, Prostaglandin D2 receptor 2 (Homo sapiens, UniProt Q9Y5Y4); assay: Inhibition of [3H]PGD-2 binding to human chemoattractant receptor-homologous molecule expressed on Th2 cells (CRTH2); format: cell-based
T3 sequence (Q9Y5Y4 whole entry): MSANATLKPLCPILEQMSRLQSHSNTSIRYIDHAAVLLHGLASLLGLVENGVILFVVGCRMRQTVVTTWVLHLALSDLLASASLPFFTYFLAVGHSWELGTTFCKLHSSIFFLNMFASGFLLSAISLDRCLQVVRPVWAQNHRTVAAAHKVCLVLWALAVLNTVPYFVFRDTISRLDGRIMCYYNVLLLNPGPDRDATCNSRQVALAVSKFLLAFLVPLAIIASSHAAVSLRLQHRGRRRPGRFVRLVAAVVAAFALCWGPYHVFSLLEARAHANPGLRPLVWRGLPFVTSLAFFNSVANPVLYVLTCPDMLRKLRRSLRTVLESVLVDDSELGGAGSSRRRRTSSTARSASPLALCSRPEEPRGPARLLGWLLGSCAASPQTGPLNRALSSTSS

[4] = molecular target: T1, Prostaglandin D2 receptor; assay: Inhibition of PGD2-induced inositol phosphate formation at human Prostaglandin D2 receptor; format: functional
[5] = molecular target: T2, Thromboxane A2 receptor; assay: Inhibition of beta-arrestin translocation at human Thromboxane A2 receptor in BRET assay; format: functional
[6] = molecular target: T3, Prostaglandin D2 receptor 2; assay: Inhibition of beta-arrestin translocation at human chemoattractant receptor-homologous molecule expressed on TH2 cells in BRET assay; format: functional, cell-based
[7] = molecular target: T3, Prostaglandin D2 receptor 2; assay: Inhibition of PGD2-induced inositol phosphate formation at human chemoattractant receptor-homologous molecule expressed on TH2 cells; format: functional, cell-based
[8] = molecular target: T2, Thromboxane A2 receptor; assay: Inhibition of U-46,619-induced inositol phosphate accumulation at human Thromboxane A2 receptor; format: functional

SMILES	Ki [1]	Ki [2]	Ki [3]	IC50 [4]	IC50 [5]	IC50 [6]	IC50 [7]	IC50 [8]
O=C(O)CCn1c2c(c3ccccc31)C[C@H](NS(=O)(=O)c1ccc(F)cc1)CC2 [RAMATROBAN]	> 10000 nM	4.5 nM	4.3 nM	> 10000 nM	8.4 nM	28 nM	29 nM	9.6 nM
CN([C@@H]1CCc2c(c3ccccc3n2CCC(=O)O)C1)S(=O)(=O)c1ccc(F)cc1	6100 nM	3000 nM	1.9 nM	> 10000 nM	–	15 nM	26 nM	4600 nM
O=C(O)Cn1c2c(c3ccccc31)C[C@H](NS(=O)(=O)c1ccc(F)cc1)CC2	5300 nM	540 nM	0.51 nM	> 10000 nM	–	3.8 nM	3.8 nM	1700 nM
